Drawing on ChEMBL document CHEMBL1126133, “2-Nitroimidazole dual-function bioreductive drugs: studies on the effects of regioisomerism and side-chain structural modifications on differential cytotoxicity and radiosensitization by aziridinyl and oxiranyl derivatives” (1992), this text covers Ratio, C50 and C1.6 for 14 molecules.

A short description of assay [1]: Ratio of concentration required to kill 50% aerobic V79-379A cells C50(air) to that of concentration required to kill 50% of cells under N2 C50(N2) was determined. It counts as functional.
A short description of assay [2]: Concentration required to kill 50% of V79-379A cells under N2 (in vitro). It counts as functional, Cricetulus griseus.
Assay [3] is described as follows: Concentration required to kill 50% of aerobic V79-379A cells (in vitro). It counts as functional, Cricetulus griseus.
A short description of assay [4]: Radiosensitization of hypoxic V79-379A cells was determined in vitro; expressed as concentration required to give enhancement ratio of 1.6.

On to `O=[N+]([O-])c1nccn1CCC1CO1` (stereo not given), for which the Ratio in assay [1] is 2. Also, the C50 came out at 0.25 mM in assay [2] and 0.5 mM in assay [3].
For the molecule `CC(C)(C(O)Cn1ccnc1[N+](=O)[O-])N1CC1` (stereo not given), the Ratio in assay [1] amounted to 12.5. Also, the C50 was 0.008 mM in assay [2] and 0.1 mM in assay [3]. Moreover, in assay [4], the C1.6 was 0.07 mM.
`O=[N+]([O-])c1nccn1[C@H]1CCC[C@@H](N2CC2)[C@@H]1O`: the Ratio in assay [1] was found to be 1. Besides, the C50 in assay [2] and in assay [3] was 0.35 mM throughout. Also, the C1.6 in assay [4] was found to be 0.45 mM.
Regarding `CC(O)(CN1CC1)Cn1ccnc1[N+](=O)[O-]` (stereo not given), the Ratio in assay [1] stood at 27.5. The C50 stood at 0.02 mM in assay [2] and 0.55 mM in assay [3].
On to `C[C@@H]([C@H](O)Cn1ccnc1[N+](=O)[O-])N1CC1`, for which the Ratio in assay [1] came to 20. The C50 in assay [2] came out at 0.01 mM; in assay [3], 0.2 mM. In addition, the C1.6 in assay [4] is 0.12 mM.
Turning to `CC1CN1CC(O)Cn1ccnc1[N+](=O)[O-]` (stereo not given), the Ratio in assay [1] was 12.2. For the same molecule, the C50 is reported as 0.065 mM in assay [2] and 0.79 mM in assay [3]. Besides, the C1.6 in assay [4] is 0.08 mM.
Consider `O=[N+]([O-])c1nccn1[C@@H]1CCC[C@@H]2O[C@@H]21`, for which, in assay [1], the Ratio turned out to be 1.5. Moreover, the figures for the C50 in assay [2] and in assay [3] were 0.18 mM and 0.28 mM, respectively.
On the same counts, the results for `CC1(Cn2ccnc2[N+](=O)[O-])CO1` (stereo not given) are 1, 0.2 mM and 0.2 mM.
On the same counts, the results for `O=[N+]([O-])c1nccn1CCCCC1CO1` (stereo not given) are 1.7, 0.7 mM and 1.2 mM.
`O=[N+]([O-])c1nccn1CC(O)CCC1CO1` (stereo not given): the Ratio in assay [1] came out at 1.5. The C50 in assay [2] was 0.4 mM; in assay [3], 0.6 mM. In assay [4], the C1.6 turned out to be 0.4 mM.
For the molecule `CC1OC1Cn1ccnc1[N+](=O)[O-]` (stereo not given), the Ratio in assay [1] turned out to be 3. Further, the C50 in assay [2] was determined as 3.3 mM; in assay [3], 10 mM.
`O=[N+]([O-])c1nccn1CC(O)C1CO1` (stereo not given): the Ratio in assay [1] amounted to 3.3. Moreover, the C50 in assay [2] is recorded as 0.36 mM; in assay [3], 1.2 mM. Further, the C1.6 in assay [4] is 0.2 mM.
Regarding `O=[N+]([O-])c1nccn1CC(O)CN1CC1` (stereo not given), in assay [1], the Ratio was 20. For the same molecule, the figures for the C50 in assay [2] and in assay [3] were 0.015 mM and 0.3 mM, respectively. In addition, in assay [4], the C1.6 worked out at 0.1 mM.
Take `O=[N+]([O-])c1ncc[nH]1` [AZOMYCIN]: the Ratio in assay [1] came out at 2. Further, the C50 in assay [2] was determined as 0.27 mM; in assay [3], 0.55 mM. In assay [4], the C1.6 is 0.25 mM.
